# Results as given in the supplement of paper PMC3974653.
# Where a name gives a salt, the structure may show the parent alone.
# System: MTT (mouse pheochromocytoma)
# Test: IC50 of cell viability (ATP content)
# Settings: (24 or 48 h)
# In short: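 MTT mouse pheochromocytoma cells (5 µl of 200,000 cells/ml per well, white 1536-well plates, DMEM with 5% FBS and 1% horse serum) were cultured overnight at 37°C, 5% CO2. They then received 23 nl library compound in DMSO by pintool at 8 concentrations (final 0.5 nM to 46 µM) for 24 or 48 hrs. CellTiter-Glo ATP luminescence was read after 15 minutes. Signals were normalised to positive-control (100% inhibition) and DMSO (0%) wells, and IC50 came from a four-parameter logistic fit.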
row,SMILES,IC50 of cell viability [µM]
1,CN(C)CCc1c[nH]c2ccc(Cn3cncn3)cc12 [RIZATRIPTAN],> 46
2,O=C(O)/C=C/C(=O)Nc1ccc([S+](=O)([O-])Nc2nccs2)cc1 [Maleilsulfatiazol],> 46
3,COC(=O)C1=C(C#N)NC(C)=C(C(=O)OC(C)C)C1c1cccc([N+](=O)[O-])c1 (stereo unspecified) [NILVADIPINE],> 46
4,COc1cc(N[S+](=O)([O-])c2ccc(N)cc2)nc(OC)n1 [Sulfadimethoxine],> 46
5,C[C@@H]\1C[C@@H]2[C@H]3CC[C@](O)(C(C)=O)[C@]3(C)C[C@H](O)[C@]2(F)[C@@]4(C)\C=C/C(=O)/C=C14 [Fluorometholone],> 46
6,OCC1(CO)COC(C(Cl)(Cl)Cl)OC1 [Penthrichloral],> 46
7,[Na+].CN(C[S]([O-])(=O)=O)\C1=C(/C)N(C)N(C1=O)C2=CC=CC=C2 [Dipyrone],> 46
8,CC/1=C/N(C(=O)/C=C1)C2=CC=CC=C2 [Pirfenidone],> 46
9,COC1=C2OC3C(O)\C=C/C4[C@H]5CC(=C2[C@@]34CCN5C)C=C1 (stereo partly specified) [Codeine],> 46
10,CCCCCCCCCCCCCCCC(=O)OCC(O)C1OC(=O)C(O)=C1O (stereo unspecified) [Ascorbyl palmitate],> 46
11,CCN(CC)C(=O)[C@H]\1CN(C)[C@@H]\2CC3=C[NH]C4=C3C(=CC=C4)C2=C1 [(+)-Lysergic],> 46
12,COc1ccc(-c2cc(=S)ss2)cc1 [ANETHOLE TRITHIONE],> 46
13,NC1C2CN(CC12)C3=NC4=C(C=C3F)C(=O)C(=C/N4C5=CC=C(F)C=C5F)\C(O)=O (stereo unspecified) [TROVAFLOXACIN MESYLATE],> 46
14,ClC(Cl)(Cl)Cl [Carbon tetrachloride],> 46
15,O=C(Oc1ccccc1)c1cccc(C(=O)Oc2ccccc2)c1 [Diphenyl isophthalate],> 46
16,NC[C@@H]1O[C@@H](O[C@H]2[C@@H](O)[C@H](O[C@@H]3O[C@@H](CO)[C@H](O)[C@H](N)[C@@H]3O)[C@@H](N)C[C@H]2N)[C@H](N)C[C@@H]1O [Tobramycin],> 46
17,CN(Cc1cc(Br)cc(Br)c1N)C1CCCCC1.Cl [BROMHEXINE HYDROCHLORIDE],> 46
18,O=C1C(CCC(O)c2ccc(F)cc2)C(c2ccc(O)cc2)N1c1ccc(F)cc1 (stereo unspecified) [EZETIMIBE],> 46
19,"CCNC(C)Cc1cccc(C(F)(F)F)c1 (single isomer, unassigned; (-)) [(-)-Fenfluramine]",> 46
20,NC(=O)CC[C@@H](N)C(=O)O [D-GLUTAMINE],> 46
21,CN(C)CCOC(=O)[C@@H](c1ccccc1)C1(O)CCCC1 [Cyclopentolate hydrochloride],> 46
22,CN(C)CC/C=C1\c2ccccc2COc2ccccc21 [Doxepin hydrochloride],> 46
23,CC(=O)Oc1cccc2c1C(=O)c1c(OC(C)=O)cc(C(=O)O)cc1C2=O [DIACERIN],> 46
24,COCCCOc1ccnc(C[S+]([O-])c2nc3ccccc3[n-]2)c1C (stereo unspecified) [RABEPRAZOLE SODIUM],> 46
25,CCOC(=O)c1ccc(N)cc1 [Benzocaine],> 46
26,Clc1ccc(C2(Cn3cncn3)OCCO2)c(Cl)c1 [Azaconazole],> 46

row,SMILES,IC50 of cell viability [µM]
1,C=CCCCCCCCCC(=O)O [Undecylenic acid],> 46
2,CC(=O)O[C@@]12CO[C@@H]1C[C@H](O)[C@]3(C)[C@@H]2[C@H](OC(=O)C4=CC=CC=C4)[C@]5(O)C[C@H](OC(=O)C(O)[C@@H](NC(=O)OC(C)(C)C)C6=CC=CC=C6)C(=C(/[C@@H](O)C3=O)C5(C)C)/C (stereo partly specified) [Docetaxel],> 46
3,O=C(O)CN1C(=O)c2cccc3cccc(c23)C1=O [Alrestatin],> 46
4,C[C@H]1NCc2cc(-c3ccc4c(=O)c(C(=O)O)cn(C5CC5)c4c3OC(F)F)ccc21 [Garenoxacin],> 46
5,CCCCCCCC(=O)O [caprylic acid (octanoic acid)],> 46
6,ClC=C(Cl)Cl [Trichloroethylene],> 46
7,O=C(O)CCCc1ccc(N(CCCl)CCCl)cc1 [CHLORAMBUCIL],> 46
8,CCOc1ccc(/N=C(\C)Nc2ccc(OCC)cc2)cc1 [Phenacaine hydrochloride],> 46
9,CCNC(=O)/C=C/c1cccc(Br)c1 [CINROMIDUM],> 46
10,O=C1c2ccccc2C(=O)C1c1ccc(Cl)cc1 [Clorindione],> 46
11,NNC(=O)CP(=O)(c1ccccc1)c1ccccc1 [Fosenazida],> 46
12,C[C@H](N)C(=O)c1ccccc1 [S(-)-Cathinone hydrochloride],> 46
13,CNC1CCCN(c2c(F)cc3c(=O)c(C(=O)O)cn(C4CC4)c3c2OC)C1 (stereo unspecified) [BALOFLOXACIN HYDRATE],> 46
14,Cc1cc(O)c(C(C)C)cc1Cl [CHLOROTHYMOL],> 46
15,CCN(CC)CCNC(=O)c1ccc(N)cc1 [PROCAINAMIDE],> 46
16,CC12CCC(C1)C(C)(C)C2=O (stereo unspecified) [FENCHONE],> 46
17,CC1(C)O[C@@H]2C[C@H]3[C@@H]4CCC/5=C/C(=O)/C=C\[C@]5(C)[C@@]4(F)[C@@H](O)C[C@]3(C)[C@@]2(O1)C(=O)CO [Triamcinolone acetonide],> 46
18,Clc1ccc([C@H](Cn2ccnc2)OCc2c(Cl)cccc2Cl)c(Cl)c1 [Isoconazole],> 46
19,CN1[C@@H]2CC[C@H]1C[C@@H](OC(c1ccccc1)c1ccccc1)C2 [Benzatropina],> 46
20,Nc1nccs1 [AMINOTHIAZOLE],> 46
21,O=C(NN1CCCC1)N[S+](=O)([O-])c1ccc(Cl)cc1 [GLYCLOPYRAMIDE],> 46
22,CN1[C@@H]2C[C@H](OC(=O)[C@@H](CO)c3ccccc3)C[C@@H]1[C@H]1O[C@H]12 [scopolamine],> 46
23,COc1ccc(C(=O)N2CCCC2=O)cc1 [ANIRACETAM],> 46
24,Nc1ccc([S+](=O)([O-])Nc2ccc(Cl)nn2)cc1 [Sulfachloropyridazine],> 46
25,O=C1C(CC[S+]([O-])c2ccccc2)C(=O)N(c2ccccc2)N1c1ccccc1 (stereo unspecified) [Sulfinpyrazone],> 46
